“Also recorded” adds a separate entry of the source.
Assays:
Type in all cases: cell-based, human
[1] = system: stage 1 neural stem cells; assay: HD-DoE 12-factor experiment for stage 2 recipe (second model, FIG. 8-10, 13)
[2] = system: stage 2 neural progenitors; assay: HD-DoE another 12-factor model for stage 3 recipe (FIG. 24, 25, 30); details: for level of MSX1 in absence of the factor / level of SOX6 in absence of the factor: AZD3147, DBZ, PD0325901 and BMP7 set; for level of MSX1 in absence of the factor: 45 with all factors; for level of SOX6 in absence of the factor: 185 with all factors; for impact on expression of MSX1 / impact on expression of SOX6: dynamic profile, 12 effectors; for factor contribution: model optimized for SOX6, positive impact
Procedure: In another 12-factor model, additional factors including Activin A, Takinib (TAK inhibitor), FGF8b, AZD3147 (mTOR antagonist), MHY1485 (mTOR agonist), and Yhhu-3792 (Notch agonist) were tested. Some of the factors from previous model (BMP7, A 8301, LDN193189, PD0325901, MK2206 and DBZ) were also included.
(§1) To assess the impact of elimination of each validated factor identified in Example 5 for the stage 3 and stage 4 recipes, we used dynamic profile analysis and compared the expression level of genes of interest in absence of each finalized factor while others are present.
In another model, to determine the combinatorial effect of AZD3147 and DBZ on gene profile of cells in presence of other factors of final recipe, the expression levels of SOX6 and MSX1 were compared in the absence of each of the factors in the presence of PD0325901 and BMP7. These two compounds were the only final compounds that were included in inputs of this experimental model The results are shown in FIG. 30A and FIG. 30B. […] When DBZ was removed, the level of SOX6 and MSX1 both decreased to 140 and 35, respectively.

MB neural progenitors = assay: HD-DoE 8-factor model, DBZ and AZD3147 (FIG. 26); details: dynamic profile
stage 3 immature neurons = assay: HD-DoE 8-factor experiment for stage 4 recipe (FIG. 27, 28, 31)
Procedure: To further differentiate the cells to a mature neuronal identity, additional HD-DoE experiments were performed on the cells that were cultured in stage 1, stage 2 and stage 3 differentiation media. After 4 days, gene expression of cells in different combinatorial conditions were investigated. At this time, we focused on maximal expression of more mature dopaminergic genes such as NR4A2, PITX3 and TH (Tiklová et al. (2020) Nat Commun. 11:2434; Fiorenzano et al. (2021) Nat Commun., 12:7302). In one model, cells were treated with a combinatorial matrix with eight inputs including CHIR99021, BDNF, GDNF, Rosiglitazone, GW7647, DBZ and heparin.
as §1
In the stage 4 recipe, each of six finalized factors were excluded while other factors were present and the expression levels of NR4A2 and PITX3 were assessed compared to the presence of all factors.

[3] = system: stage 2 neural progenitors; assay: HD-DoE 12-factor model for stage 3 recipe (FIG. 19-23, 29); details: model optimized for maximum expression of KCNJ6; positive regulators

Question: How did the “impact on expression of FOXA2” value ([1]; dynamic profile, 12 effectors) turn out when `C[C@H]1COCCN1c1cc(C2(S(=O)(=O)C3CC3)CC2)nc(-c2ccc(NC(=S)NCCO)cc2)n1` [AZD 3147] was run?
Answer: The value was “did not reduce”.

Question: And the “impact on expression of LMX1A” value ([1]; dynamic profile, 12 effectors)?
Answer: The value was “significant positive impact”.

Question: What about the factor contribution ([1]; model optimized for maximum expression of FOXA2, positive impact) of the same compound?
Answer: The factor contribution was 10.9.

Question: What about the “level of FOXA2 in absence of the factor” value ([1]; stage 2 recipe, second experiment model) of the same compound?
Answer: The value was “almost no effect”.

Question: And the “level of LMX1A in absence of the factor” value ([1]; stage 2 recipe, second experiment model, 4000 with all factors)?
Answer: Its value is 2000.

Question: And the “level of MSX1 in absence of the factor” value [2]?
Answer: Its value is “did not change”.

Question: And the “level of SOX6 in absence of the factor” value [2]?
Answer: The value was 150.

Question: What about the “impact on expression of MSX1” value [2] of the same compound?
Answer: The value was “did not show any significant impact”.

Question: And the “impact on expression of SOX6” value [2]?
Answer: Its value is “positive impact”.

Question: What about the factor contribution [2] of the same compound?
Answer: The factor contribution was 20.2.

Question: And the “impact on expression of CORIN, KCNJ6, SOX6 and MSX1” value (MB neural progenitors)?
Answer: Its value is “positive regulatory effect; also recorded: Positive impact”.

Question: `C[C@H](NC(=O)Cc1cc(F)cc(F)c1)C(=O)N[C@@H]1C(=O)N(C)c2ccccc2-c2ccccc21` [DBZ] was tested. Which “level of MSX1 in absence of the factor” value [2] did it give?
Answer: Its value is 35.

Question: And the “level of SOX6 in absence of the factor” value [2]?
Answer: Its value is 140.

Question: And the “impact on expression of MSX1” value [2]?
Answer: The value was “did not show any significant impact”.

Question: What about the “impact on expression of SOX6” value [2] of the same compound?
Answer: Its value is “positive impact”.

Question: And the factor contribution [2]?
Answer: The factor contribution was 21.5.

Question: And the “impact on expression of NR4A2” value (stage 3 immature neurons; 8-factor model / dynamic profile)?
Answer: The value was “positive regulatory impact”.

Question: And the “expression level of PITX3 in absence of the factor” value (stage 3 immature neurons; stage 4 recipe, other factors present, 40 with all factors)?
Answer: Its value is 30.

Question: What about the “expression level of NR4A2 in absence of the factor” value (stage 3 immature neurons; stage 4 recipe, other factors present, 400 with all factors) of the same compound?
Answer: Its value is 200.

Question: And the “impact on expression of CORIN, KCNJ6, SOX6 and MSX1” value (MB neural progenitors)?
Answer: The value was “positive regulatory effect; also recorded: Positive impact”.

Question: And the factor contribution [3]?
Answer: The factor contribution was “low factor contributions”.

Reference: patent US20240117303A1, “METHODS AND COMPOSITIONS FOR GENERATING HUMAN MIDBRAIN DOPAMINERGIC NEURONS FROM NEURAL PROGENITOR CELLS” (Trailhead Biosystems Inc., priority 2022, published 2024)
